Source: patent publication US7902218B2, “Substituted tetrahydroisoquinolines as β-secretase inhibitors” (Bristol-Myers Squibb Company, priority 2006, dated 2011)
Where two headings read alike, the source gives them in different places.

Molecular target: T1, BACE1 enzyme (Homo sapiens, UniProt P56817)
T1 construct: which overexpresses the BACE1 enzyme, was derived from HEK293 cells; endogenous in cells; washed 48,000 x g pellet of the cell homogenate
Test: Radioligand displacement assay with a radiolabeled BACE inhibitor, HEK293-9B.A1 cell homogenate
Assay type: binding
Source text: There are a number of methods by which inhibitors of the BACE enzyme can be identified experimentally. The enzyme can be obtained from membrane samples from natural tissues or cultured cells or can be expressed recombinantly in a host cell by well known methods of molecular biology. […] The enzymatic activity and/or ligand binding capability of the enzyme can be assessed within these membrane samples, or the enzyme can be purified to varying extents. As an illustrative example, the nucleic acid sequence encoding the pro and catalytic domains of human BACE can be appended on the 5′ end with an untranslated and signal sequence from the gene for acetylcholinesterase, and on the 3′ end with a sequence encoding a poly-histidine tag. This cDNA can then be expressed in Drosophila melanogaster S2 cells in which the signal and pro sequences of the transcribed/translated protein are removed by cellular proteases and the catalytic domain, appended by a C-terminal poly-histidine tag, is secreted out into the cellular medium. The enzyme can then be purified from the culture medium by nickel affinity chromatography by methods well known to those trained in the art [Mallender, W. et al., “Characterization of recombinant, soluble beta-secretase from an insect cell expression system.” Mol. Pharmacol. 2001, 59: 619-626]. Similar strategies for expressing and purifying various forms of BACE in bacterial, mammalian and other cell types would be known to one skilled in the art.
Radioligand displacement assays with a radiolabeled BACE inhibitor (WO 2004 013098, compound 3, where the methoxy group is substituted for C(^3H)3) were carried out using standard methods (Keen, M. (1999) in Receptor Binding Techniques (Walker, J. M. ed) p. 106 Humana Press, Totowa, N.J.). The HEK293-9B.A1 cell line, which overexpresses the BACE1 enzyme, was derived from HEK293 cells (Simmons, N. L. (1990) A cultured human renal epithelioid cell line responsive to vasoactive intestinal peptide. Exp. Physiol. 75:309-19.) by RAGE™ (Harrington, J. J. et al. (2001) Creation of genome-wide protein expression libraries using random activation of gene expression. Nat. Biotechnol. 19:440-5.; U.S. Pat. Nos. 6,410,266 and 6,361,972). T225 flask cultures of HEK293-9B.A1 were grown to 80% confluency in DMEM supplemented with 2 mM L-glutamine, 10 μg/ml penecillin, 10 μg/ml streptomycin, 3 μg/ml puromycin, 100 nM methotrexate, and 10% fetal bovine serum (Invitrogen, Carlsbad, Calif.), harvested, and resuspended at 2×10^8 cells per 10 ml of lysis buffer consisting of 50 mM HEPES pH 7.0 containing a protease inhibitor cocktail of AEBSF 104 μM, aprotinin 80 nM, leupeptin 2 μM, bestatin 4 μM, pepstatin A 1.5 μM, and E-64 1.4 μM (0.1% of protease inhibitor cocktail P8340, Sigma-Aldrich, St. Louis, Mo.) at 4° C. The resuspended cells were homogenized using a Polytron (Brinkman, Westbury, N.Y.) at setting 6 for 10 sec., then centrifuged at 48,000×g for 10 min. The resulting pellet was washed by repeating the resuspension, homogenization and centrifugation steps. The final pellet was resuspended in buffer at 4° C. to yield a total protein concentration of 5 mg/ml, then aliquots were frozen in liquid nitrogen for further storage at −70° C. Immediately before carrying out a binding assay, an aliquot of cell homogenate was thawed and diluted to a concentration of 100 μg/ml in assay buffer consisting of 50 mM HEPES pH 5.0 and 0.1% CHAPSO. Assays were initiated in polypropylene 96-well plates (Costar, Cambridge, Mass.) by the addition of 200 μl of cell homogenate to 50 μl of assay buffer containing 1 nM radioligand (WO 2004 013098, compound 3, where the methoxy group is substituted for C(^3H)3: 80 Ci/mMol) and various concentrations of unlabelled compounds, and incubated for 1.5 hr. at 25° C. Separation of bound from free radioligand was by filtration on GFF glass fiber filters (Innotech Biosystems International, Lansing, Mich.) using an Innotech cell harvester.

[1] = displacement of 1 nM tritiated radioligand, HEK293-9B.A1 homogenate, pH 5.0, 1.5 hr at 25° C., read-out: Activity Rating (Activity based on IC50 values)

T1 sequence (P56817 46-501): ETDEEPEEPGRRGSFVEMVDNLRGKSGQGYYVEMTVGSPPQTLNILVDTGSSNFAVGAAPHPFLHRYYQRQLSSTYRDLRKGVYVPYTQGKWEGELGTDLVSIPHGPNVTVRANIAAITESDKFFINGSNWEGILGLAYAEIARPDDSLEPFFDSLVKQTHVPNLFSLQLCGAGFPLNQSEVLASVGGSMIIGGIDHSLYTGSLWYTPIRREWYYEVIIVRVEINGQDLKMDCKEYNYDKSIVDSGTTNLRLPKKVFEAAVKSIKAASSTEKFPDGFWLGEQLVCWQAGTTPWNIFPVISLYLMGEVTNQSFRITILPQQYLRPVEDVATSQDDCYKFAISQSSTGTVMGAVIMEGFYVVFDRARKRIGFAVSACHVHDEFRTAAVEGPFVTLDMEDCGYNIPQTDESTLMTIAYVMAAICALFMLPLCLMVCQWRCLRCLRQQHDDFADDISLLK

Row | SMILES | IC50 [1] [nM] | IC50 [nM]
1 | CCCC[C@H]1CCN([C@@H](CCc2ccccc2)C(=O)N[C@@H](Cc2cc(F)cc(F)c2)[C@H](O)[C@H]2Cc3ccccc3CN2)C1=O [Example 4] | > 1000 | 
2 | CC(=O)N[C@]1(CC(C)C)CCN([C@@H](CCc2ccccc2)C(=O)N[C@@H](Cc2cc(F)cc(F)c2)[C@H](O)[C@H]2Cc3ccccc3CN2)C1=O [Example 6, (S)-2-((R)-3-Acetamido-3-isobutyl-2-oxopyrrolidin-1-yl)-N-((1R,2S)-3-(3,5-difluorophenyl)-1-hydroxy-1-((R)-1,2,3,4-tetrahydroisoquinolin-3-yl)propan-2-yl)-4-phenylbutanamide] | < 10 | 
3 | CCCCN(C)C(=O)n1cc(C(=O)N[C@@H](Cc2cc(F)cc(F)c2)[C@H](O)C2Cc3ccccc3CN2)c2cccnc21 (stereo partly drawn) [Example 8, N^1-Butyl-N^3-((1R,2S)-3-(3,5-difluorophenyl)-1-hydroxy-1-(1,2,3,4-tetrahydroisoquinolin-3-yl)propan-2-yl)-N^1-methyl-1H-pyrrolo[2,3-b]pyridine-1,3-dicarboxamide] |  | > 1000
4 | CCCOc1cccc2c1CN[C@@H]([C@@H](O)[C@H](Cc1cc(F)cc(F)c1)NC(=O)[C@H](CCc1ccccc1)N1CC[C@](NC(C)=O)([C@H](C)CC)C1=O)C2 [Example 3, (S)-2-((S)-3-Acetamido-3-((R)-sec-butyl)-2-oxopyrrolidin-1-yl)-N-((1R,2S)-3-(3,5-difluorophenyl)-1-hydroxy-1-((R)-8-propoxy-1,2,3,4-tetrahydroisoquinolin-3-yl)propan-2-yl)-4-phenylbutanamide] | < 10 | 
5 | CCCC[C@H]1CCN([C@@H](C)C(=O)N[C@@H](Cc2cc(F)cc(F)c2)[C@H](O)[C@H]2Cc3ccccc3CN2)C1=O [Example 5, (S)-2-((S)-3-Butyl-2-oxopyrrolidin-1-yl)-N-((1R,2S)-3-(3,5-difluorophenyl)-1-hydroxy-1-((R)-1,2,3,4-tetrahydroisoquinolin-3-yl)propan-2-yl)propanamide] | > 1000 | 
6 | CCC(C)[C@@]1(NC(C)=O)CCN([C@@H](CCc2ccccc2)C(=O)N[C@@H](Cc2cc(F)cc(F)c2)[C@H](O)[C@H]2Cc3ccccc3CN2)C1=O (stereo in doubt) [Example 1, (S)-2-((S)-3-Acetamido-3-((R)-sec-butyl)-2-oxopyrrolidin-1-yl)-N-((1R,2S)-3-(3,5-difluorophenyl)-1-hydroxy-1-((R)-1,2,3,4-tetrahydroisoquinolin-3-yl)propan-2-yl)-4-phenylbutanamide] | < 10 | 
7 | CCC(C)[C@@]1(NC(C)=O)CCN([C@@H](CCc2ccccc2)C(=O)N[C@@H](Cc2cc(F)cc(F)c2)[C@H](O)C2Cc3cccc(OC)c3CN2)C1=O (stereo partly drawn) [Example 7, (2S)-2-((S)-3-Acetamido-3-sec-butyl-2-oxopyrrolidin-1-yl)-N-((1R,2S)-3-(3,5-difluorophenyl)-1-hydroxy-1-(8-methoxy-1,2,3,4-tetrahydroisoquinolin-3-yl)propan-2-yl)-4-phenylbutanamide] | < 10 | 
8 | CCC(C)[C@@]1(NC(C)=O)CCN([C@@H](CCc2ccccc2)C(=O)N[C@@H](Cc2cc(F)cc(F)c2)[C@H](O)[C@@H]2Cc3ccccc3CN2)C1=O (stereo in doubt) [Example 2, (S)-2-((S)-3-Acetamido-3-((R)-sec-butyl)-2-oxopyrrolidin-1-yl)-N-((1R,2S)-3-(3,5-difluorophenyl)-1-hydroxy-1-((S)-1,2,3,4-tetrahydroisoquinolin-3-yl)propan-2-yl)-4-phenylbutanamide] | 10 to 1000 | 
